Laboratory results: ChEMBL document CHEMBL2146376, “'Inverted' analogs of the antibiotic gramicidin S with an improved biological profile” (Bioorg Med Chem, 2012)
Converted amounts (≈) assume the structure as drawn. Square brackets hold non-standard residues; d marks the D form. Peptide text beside a SMILES is read from it. Gly(1-adamantyl) = N[C@H](C(=O)O)C12CC3CC(CC(C3)C1)C2; Orn = NCCC[C@H](N)C(=O)O

Legend:
Staphylococcus aureus [1] = experiment: Antibacterial activity against PVL-deficient and non-typable methicillin-resistant Staphylococcus aureus N229-T034 after 24 hrs by broth dilution method; type: functional; conditions: N229-T034, 24 h
Bacillus cereus = experiment: Antibacterial activity against Bacillus cereus ATCC 11778 after 24 hrs by broth dilution method; type: functional; conditions: ATCC 11778, 24 h
Enterococcus faecalis = experiment: Antibacterial activity against Enterococcus faecalis ATCC 29212 after 24 hrs by broth dilution method; type: functional; conditions: ATCC 29212, 24 h
Staphylococcus aureus [2] = experiment: Antibacterial activity against PVL-positive and non-typable methicillin-resistant Staphylococcus aureus 1110301981H-T034 after 24 hrs by broth dilution method; type: functional
[3] = system: Staphylococcus epidermidis; experiment: Antibacterial activity against Staphylococcus epidermidis ATCC 12228 after 24 hrs by broth dilution method; type: functional; conditions: ATCC 12228, 24 h
[4] = Toxicity in human erythrocytes assessed as concentration required to achieve 100% hemolysis after 4 hrs; type: cell-based; conditions: erythrocyte
Staphylococcus aureus [5] = experiment: Antibacterial activity against Staphylococcus aureus ATCC 29213 after 24 hrs by broth dilution method; type: functional; conditions: ATCC 29213, 24 h
Staphylococcus aureus [6] = experiment: Antibacterial activity against PVL-deficient and non-typable methicillin-resistant Staphylococcus aureus N133-T034 after 24 hrs by broth dilution method; type: functional; conditions: N133-T034, 24 h
Pseudomonas aeruginosa = experiment: Antibacterial activity against Pseudomonas aeruginosa ATCC 27853 after 24 hrs by broth dilution method; type: functional; conditions: ATCC 27853, 24 h
Staphylococcus aureus [7] = experiment: Antibacterial activity against PVL-positive and non-typable methicillin-resistant Staphylococcus aureus USA300-1110301146 after 24 hrs by broth dilution method; type: functional; conditions: USA300-1110301146, 24 h
Escherichia coli = experiment: Antibacterial activity against Escherichia coli ATCC 25922 after 24 hrs by broth dilution method; type: functional; conditions: ATCC 25922, 24 h

SMILES	MIC (Staphylococcus aureus [1]) [µg/mL]	MIC (Bacillus cereus) [µg/mL]	MIC (Enterococcus faecalis) [µg/mL]	MIC (Staphylococcus aureus [2]) [µg/mL]	MIC [3] [µg/mL]	Activity [4] [µM]	MIC (Staphylococcus aureus [5]) [µg/mL]	MIC (Staphylococcus aureus [6]) [µg/mL]	MIC (Pseudomonas aeruginosa) [µg/mL]	MIC (Staphylococcus aureus [7]) [µg/mL]	MIC (Escherichia coli) [µg/mL]
CC(C)C[C@@H]1NC(=O)[C@H](CCCN)NC(=O)[C@H](C(C)C)NC(=O)[C@@H]2CCCN2C(=O)[C@@H](Cc2ccccc2)NC(=O)[C@H](CC(C)C)NC(=O)[C@H](CCCN)NC(=O)[C@H](C(C)C)NC(=O)[C@@H]2CCCN2C(=O)[C@@H](Cc2ccccc2)NC1=O [GRAMICIDIN S] (cyclo(L[dF]PV[Orn]L[dF]PV[Orn]))	8 (≈ 7.01 µM)	8 (≈ 7.01 µM)	16 (≈ 14 µM)	8 (≈ 7.01 µM)	8 (≈ 7.01 µM)	31.3	8 (≈ 7.01 µM)	8 (≈ 7.01 µM)	64 (≈ 56.1 µM)	8 (≈ 7.01 µM)	32 (≈ 28 µM)
CC(C)(C)C[C@@H]1NC(=O)[C@H](CCCN)NC(=O)[C@@H]2CCCN2C(=O)[C@@H](Cc2ccccc2)NC(=O)[C@H](CCCN)NC(=O)[C@H](CC(C)(C)C)NC(=O)[C@H](CCCN)NC(=O)[C@@H]2CCCN2C(=O)[C@@H](Cc2ccccc2)NC(=O)[C@H](CCCN)NC1=O	> 64	> 64	> 64	> 64	16 (≈ 13.3 µM)	> 500	> 64	> 64	64 (≈ 53.4 µM)	> 64	> 64
CC(C)(C)C[C@@H]1NC(=O)[C@H](CCCN)NC(=O)[C@@H]2CCCN2C(=O)[C@@H](Cc2ccccc2)NC(=O)[C@H](CCCN)NC(=O)[C@H](CC23CC4CC(CC(C4)C2)C3)NC(=O)[C@H](CCCN)NC(=O)[C@@H]2CCCN2C(=O)[C@@H](Cc2ccccc2)NC(=O)[C@H](CCCN)NC1=O	16 (≈ 12.5 µM)	4 (≈ 3.13 µM)	32 (≈ 25 µM)	16 (≈ 12.5 µM)	4 (≈ 3.13 µM)	500	16 (≈ 12.5 µM)	16 (≈ 12.5 µM)	16 (≈ 12.5 µM)	16 (≈ 12.5 µM)	16 (≈ 12.5 µM)
NCCC[C@@H]1NC(=O)[C@H](C23CC4CC(CC(C4)C2)C3)NC(=O)[C@H](CCCN)NC(=O)[C@@H]2CCCN2C(=O)[C@@H](Cc2ccccc2)NC(=O)[C@H](CCCN)NC(=O)[C@H](C23CC4CC(CC(C4)C2)C3)NC(=O)[C@H](CCCN)NC(=O)[C@@H]2CCCN2C(=O)[C@@H](Cc2ccccc2)NC1=O (cyclo([Orn][dF]P[Orn][Gly(1-adamantyl)][Orn][dF]P[Orn][Gly(1-adamantyl)]))	8 (≈ 6.03 µM)	8 (≈ 6.03 µM)	8 (≈ 6.03 µM)	8 (≈ 6.03 µM)	4 (≈ 3.01 µM)	500	8 (≈ 6.03 µM)	8 (≈ 6.03 µM)	16 (≈ 12.1 µM)	8 (≈ 6.03 µM)	8 (≈ 6.03 µM)
CC(C)(C)[C@@H]1NC(=O)[C@H](CCCN)NC(=O)[C@@H]2CCCN2C(=O)[C@@H](Cc2ccccc2)NC(=O)[C@H](CCCN)NC(=O)[C@H](C23CC4CC(CC(C4)C2)C3)NC(=O)[C@H](CCCN)NC(=O)[C@@H]2CCCN2C(=O)[C@@H](Cc2ccccc2)NC(=O)[C@H](CCCN)NC1=O	64 (≈ 51.2 µM)	32 (≈ 25.6 µM)	> 64	64 (≈ 51.2 µM)	4 (≈ 3.2 µM)	> 500	64 (≈ 51.2 µM)	64 (≈ 51.2 µM)	32 (≈ 25.6 µM)	64 (≈ 51.2 µM)	32 (≈ 25.6 µM)
CC(C)[C@@H]1NC(=O)[C@H](CCCN)NC(=O)[C@@H]2CCCN2C(=O)[C@@H](Cc2ccccc2)NC(=O)[C@H](CCCN)NC(=O)[C@H](C(C)(C)C)NC(=O)[C@H](CCCN)NC(=O)[C@@H]2CCCN2C(=O)[C@@H](Cc2ccccc2)NC(=O)[C@H](CCCN)NC1=O	> 64	> 64	> 64	> 64	64 (≈ 55.3 µM)	> 500	> 64	> 64	> 64	> 64	> 64
CC(C)C[C@@H]1NC(=O)[C@H](CCCN)NC(=O)[C@@H]2CCCN2C(=O)[C@@H](Cc2ccccc2)NC(=O)[C@H](CCCN)NC(=O)[C@H](CC23CC4CC(CC(C4)C2)C3)NC(=O)[C@H](CCCN)NC(=O)[C@@H]2CCCN2C(=O)[C@@H](Cc2ccccc2)NC(=O)[C@H](CCCN)NC1=O	32 (≈ 25.3 µM)	16 (≈ 12.7 µM)	64 (≈ 50.6 µM)	64 (≈ 50.6 µM)	4 (≈ 3.17 µM)	> 500	64 (≈ 50.6 µM)	32 (≈ 25.3 µM)	16 (≈ 12.7 µM)	32 (≈ 25.3 µM)	64 (≈ 50.6 µM)
